Test results reported in article PMC6090556 (Neuron, 2018).
Read-outs that look alike come from different tables or passages of the source. Marks after values point to notes of the source that are not given here.

Legend:
GluN1/GluN2A = GluN1/GluN2A (Rattus norvegicus, UniProt P35439+Q00959); details: 5 ms pulse of 1 mM glutamate, continuous 100 μM glycine, n=6
GluN1/GluN2C = GluN1/GluN2C (Rattus norvegicus, UniProt P35439+Q00961); details: 5 ms pulse of 1 mM glutamate, continuous 100 μM glycine, n=8
[1] = test system: NMDARs in cultured cortical neurons transfected with GluN2C and GFP; assay type: cell-based, rat
[2] = test system: NMDARs in cultured cortical neurons transfected with GFP alone (control); assay type: cell-based, rat
[3] = molecular target: NMDARs in cerebellar granule cells, wild type mice (Mus musculus, UniProt P35436+P35438+Q01098); assay type: cell-based
[4] = molecular target: GluN1/GluN2AC1/GluN2CC2(NK) (Rattus norvegicus, UniProt P35439+Q00959+Q00961, N612K); experiment: Two-electrode voltage-clamp recordings in Xenopus oocytes; assay type: cell-based; details: for GluN2AC1/GluN2CC2(NK) fitted response in saturating Zn2+ as percent of control: mean ± SEM; for IC50: read-out: GluN2AC1/GluN2CC2(NK) EC50 (95% CI), IC50 in text, Zn2+ inhibition
GluN1/GluN2AC1/GluN2AC2 = GluN1/GluN2AC1/GluN2AC2 (Rattus norvegicus, UniProt P35439+Q00959); experiment: as above
[5] = molecular target: NMDARs in cultured cortical neurons (Rattus norvegicus, UniProt P35439+Q00960); assay type: cell-based; details: spermine potentiation of native GluN2B-mediated current responses, n=3
[6] = test system: NMDARs in cultured cortical neurons; assay type: cell-based, rat; details: 400 μM DL-APV
[7] = molecular target: NMDARs in cerebellar granule cells, Grin2A−/− mice (Mus musculus, UniProt P35438+Q01098); assay type: cell-based; details: 50 μM PYD-106, Grin2A−/− slices, n=8 animals
[8] = test system: GluN1/GluN2B/GluN2C receptors; experiment: Two-electrode voltage-clamp recordings in Xenopus oocytes; assay type: cell-based, rat; details: Figure S1
[9] = molecular target: NMDARs in cerebellar granule cells, Grin2C−/− mice (Mus musculus, UniProt P35436+P35438); assay type: cell-based; details: 50 μM PYD-106, Grin2C−/− slices, n=8 animals

GluN1/GluN2AC1/GluN2CC2(NK), sequence (Q00961 20-836 N612K, other chains not shown): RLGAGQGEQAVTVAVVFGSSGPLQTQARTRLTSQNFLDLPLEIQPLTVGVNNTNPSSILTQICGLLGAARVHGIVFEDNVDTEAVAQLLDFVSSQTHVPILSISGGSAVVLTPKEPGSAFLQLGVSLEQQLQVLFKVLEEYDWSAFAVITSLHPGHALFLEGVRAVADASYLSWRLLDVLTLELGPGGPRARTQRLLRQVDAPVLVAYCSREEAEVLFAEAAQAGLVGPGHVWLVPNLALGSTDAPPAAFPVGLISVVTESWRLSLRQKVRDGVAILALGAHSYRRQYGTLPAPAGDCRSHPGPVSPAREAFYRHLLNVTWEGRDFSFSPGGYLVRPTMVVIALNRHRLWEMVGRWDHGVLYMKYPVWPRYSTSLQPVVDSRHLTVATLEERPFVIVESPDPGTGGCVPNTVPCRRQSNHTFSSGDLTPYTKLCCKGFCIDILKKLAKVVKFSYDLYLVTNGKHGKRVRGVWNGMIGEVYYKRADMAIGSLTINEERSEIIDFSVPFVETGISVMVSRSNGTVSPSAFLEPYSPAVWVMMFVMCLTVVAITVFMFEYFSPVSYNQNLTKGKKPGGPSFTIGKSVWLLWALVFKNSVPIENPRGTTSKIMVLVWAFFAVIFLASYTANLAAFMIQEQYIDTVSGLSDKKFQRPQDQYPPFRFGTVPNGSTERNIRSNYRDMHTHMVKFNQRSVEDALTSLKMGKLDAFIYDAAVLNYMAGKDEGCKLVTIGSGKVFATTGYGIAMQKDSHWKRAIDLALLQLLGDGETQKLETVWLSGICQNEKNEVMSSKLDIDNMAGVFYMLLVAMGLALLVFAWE
GluN1/GluN2AC1/GluN2CC2(NK), sequence (Q00959 23-1464, other chains not shown): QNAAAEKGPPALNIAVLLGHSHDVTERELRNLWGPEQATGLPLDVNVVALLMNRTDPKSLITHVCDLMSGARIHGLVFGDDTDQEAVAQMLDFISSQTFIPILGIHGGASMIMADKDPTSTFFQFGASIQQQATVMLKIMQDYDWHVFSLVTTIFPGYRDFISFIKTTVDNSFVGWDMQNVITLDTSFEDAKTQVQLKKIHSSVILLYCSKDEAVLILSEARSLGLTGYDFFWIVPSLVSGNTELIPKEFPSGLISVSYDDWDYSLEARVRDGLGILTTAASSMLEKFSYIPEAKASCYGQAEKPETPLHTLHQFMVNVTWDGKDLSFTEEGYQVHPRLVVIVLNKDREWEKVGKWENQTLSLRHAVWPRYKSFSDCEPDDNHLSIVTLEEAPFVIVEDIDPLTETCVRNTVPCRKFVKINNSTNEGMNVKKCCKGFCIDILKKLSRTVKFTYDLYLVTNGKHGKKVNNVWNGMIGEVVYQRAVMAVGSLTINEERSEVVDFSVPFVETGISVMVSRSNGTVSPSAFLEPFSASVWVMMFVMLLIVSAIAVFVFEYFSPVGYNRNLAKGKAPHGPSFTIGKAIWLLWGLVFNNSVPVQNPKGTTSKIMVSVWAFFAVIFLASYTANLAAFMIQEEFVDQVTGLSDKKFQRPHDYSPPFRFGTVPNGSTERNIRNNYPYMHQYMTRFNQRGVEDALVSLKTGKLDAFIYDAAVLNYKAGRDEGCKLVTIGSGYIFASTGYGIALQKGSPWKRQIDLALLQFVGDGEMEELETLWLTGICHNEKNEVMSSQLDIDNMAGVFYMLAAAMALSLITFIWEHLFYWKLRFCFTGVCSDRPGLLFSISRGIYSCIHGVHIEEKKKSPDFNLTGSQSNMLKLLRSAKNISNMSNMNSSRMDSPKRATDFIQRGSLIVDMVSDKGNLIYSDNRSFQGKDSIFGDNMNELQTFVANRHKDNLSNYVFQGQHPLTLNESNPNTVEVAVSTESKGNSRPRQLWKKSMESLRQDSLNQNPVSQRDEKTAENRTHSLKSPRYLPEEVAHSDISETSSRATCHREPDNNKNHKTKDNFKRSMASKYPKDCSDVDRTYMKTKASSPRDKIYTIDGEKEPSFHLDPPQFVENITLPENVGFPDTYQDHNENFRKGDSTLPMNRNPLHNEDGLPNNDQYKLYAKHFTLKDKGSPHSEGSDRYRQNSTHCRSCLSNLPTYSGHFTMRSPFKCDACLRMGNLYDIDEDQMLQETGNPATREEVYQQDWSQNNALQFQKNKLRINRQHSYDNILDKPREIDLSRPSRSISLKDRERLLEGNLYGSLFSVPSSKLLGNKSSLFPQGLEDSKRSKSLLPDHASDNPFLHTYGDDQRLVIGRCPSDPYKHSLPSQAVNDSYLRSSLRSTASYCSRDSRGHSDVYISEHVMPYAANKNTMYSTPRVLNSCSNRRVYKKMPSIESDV
NMDARs in cerebellar granule cells, wild type mice, sequence (P35436 23-1464, other chains not shown): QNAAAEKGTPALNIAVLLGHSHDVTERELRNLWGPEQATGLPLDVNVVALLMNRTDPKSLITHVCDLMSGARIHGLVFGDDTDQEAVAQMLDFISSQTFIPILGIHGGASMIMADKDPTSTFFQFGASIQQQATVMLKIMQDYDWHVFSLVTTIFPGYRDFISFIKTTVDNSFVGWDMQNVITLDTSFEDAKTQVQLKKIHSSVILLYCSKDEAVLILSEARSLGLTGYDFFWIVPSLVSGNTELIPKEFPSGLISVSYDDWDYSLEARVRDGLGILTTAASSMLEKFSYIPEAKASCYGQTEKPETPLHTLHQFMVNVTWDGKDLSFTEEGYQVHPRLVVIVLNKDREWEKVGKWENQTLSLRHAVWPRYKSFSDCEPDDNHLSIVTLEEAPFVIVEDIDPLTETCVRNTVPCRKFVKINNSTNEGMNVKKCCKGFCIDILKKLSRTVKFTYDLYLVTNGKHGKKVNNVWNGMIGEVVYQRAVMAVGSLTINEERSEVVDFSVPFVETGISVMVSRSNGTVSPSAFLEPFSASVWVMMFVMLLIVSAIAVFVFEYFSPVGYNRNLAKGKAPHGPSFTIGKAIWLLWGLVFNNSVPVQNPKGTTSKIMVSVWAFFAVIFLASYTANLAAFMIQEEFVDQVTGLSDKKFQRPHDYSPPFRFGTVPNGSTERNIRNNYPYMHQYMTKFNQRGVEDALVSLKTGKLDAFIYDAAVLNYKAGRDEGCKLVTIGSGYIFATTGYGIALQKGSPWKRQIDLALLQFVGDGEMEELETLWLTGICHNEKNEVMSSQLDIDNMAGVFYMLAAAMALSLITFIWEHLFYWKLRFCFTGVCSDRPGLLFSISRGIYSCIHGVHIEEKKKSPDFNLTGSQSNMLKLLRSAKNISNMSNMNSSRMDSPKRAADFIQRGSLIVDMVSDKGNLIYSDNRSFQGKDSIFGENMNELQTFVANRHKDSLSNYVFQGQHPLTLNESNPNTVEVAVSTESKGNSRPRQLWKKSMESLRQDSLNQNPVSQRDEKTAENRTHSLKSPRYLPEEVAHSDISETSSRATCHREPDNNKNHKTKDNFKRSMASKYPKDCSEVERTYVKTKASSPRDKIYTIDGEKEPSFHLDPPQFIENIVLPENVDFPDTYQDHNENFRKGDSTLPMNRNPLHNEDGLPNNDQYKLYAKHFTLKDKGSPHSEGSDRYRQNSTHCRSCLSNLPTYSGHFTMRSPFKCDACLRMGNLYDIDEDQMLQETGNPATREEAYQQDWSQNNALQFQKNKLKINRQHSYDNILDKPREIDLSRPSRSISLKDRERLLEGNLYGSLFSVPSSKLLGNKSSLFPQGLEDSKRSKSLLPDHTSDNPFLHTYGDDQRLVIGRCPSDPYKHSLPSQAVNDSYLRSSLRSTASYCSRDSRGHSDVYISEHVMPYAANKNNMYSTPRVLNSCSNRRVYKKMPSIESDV
NMDARs in cerebellar granule cells, wild type mice, sequence (Q01098 20-1239, other chains not shown): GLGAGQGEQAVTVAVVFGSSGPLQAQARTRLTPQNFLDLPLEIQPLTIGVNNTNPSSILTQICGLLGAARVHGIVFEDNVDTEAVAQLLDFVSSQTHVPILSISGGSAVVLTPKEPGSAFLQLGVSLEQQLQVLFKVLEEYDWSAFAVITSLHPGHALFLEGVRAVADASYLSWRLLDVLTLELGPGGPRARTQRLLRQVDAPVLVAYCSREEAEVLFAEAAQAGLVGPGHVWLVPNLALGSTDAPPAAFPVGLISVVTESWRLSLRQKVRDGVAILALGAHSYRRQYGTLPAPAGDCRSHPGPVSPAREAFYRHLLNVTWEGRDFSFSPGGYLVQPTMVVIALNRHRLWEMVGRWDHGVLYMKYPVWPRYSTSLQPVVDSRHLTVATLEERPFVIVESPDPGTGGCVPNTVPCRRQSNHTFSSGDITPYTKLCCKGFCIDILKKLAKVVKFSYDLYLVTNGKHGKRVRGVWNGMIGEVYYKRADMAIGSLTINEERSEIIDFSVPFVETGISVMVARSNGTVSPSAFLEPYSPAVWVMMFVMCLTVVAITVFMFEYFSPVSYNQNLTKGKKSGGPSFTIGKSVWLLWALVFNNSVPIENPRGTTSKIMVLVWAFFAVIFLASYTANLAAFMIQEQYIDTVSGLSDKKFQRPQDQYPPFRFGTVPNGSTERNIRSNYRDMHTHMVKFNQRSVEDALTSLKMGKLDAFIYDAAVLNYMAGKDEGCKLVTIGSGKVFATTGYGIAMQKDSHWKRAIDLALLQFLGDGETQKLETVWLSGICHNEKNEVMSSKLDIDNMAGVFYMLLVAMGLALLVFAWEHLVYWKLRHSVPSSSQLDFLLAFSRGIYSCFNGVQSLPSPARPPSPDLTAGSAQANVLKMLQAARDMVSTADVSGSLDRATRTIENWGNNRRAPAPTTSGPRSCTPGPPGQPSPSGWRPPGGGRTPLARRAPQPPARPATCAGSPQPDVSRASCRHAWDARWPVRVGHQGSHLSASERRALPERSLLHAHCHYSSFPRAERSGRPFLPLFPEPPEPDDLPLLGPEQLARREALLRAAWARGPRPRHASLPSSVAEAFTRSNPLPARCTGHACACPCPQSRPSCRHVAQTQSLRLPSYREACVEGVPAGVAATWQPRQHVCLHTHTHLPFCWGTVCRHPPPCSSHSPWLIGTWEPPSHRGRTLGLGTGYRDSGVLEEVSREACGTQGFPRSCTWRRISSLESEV
NMDARs in cerebellar granule cells, Grin2A−/− mice, sequence (Q01098 20-1239, other chains not shown): as above

`N[C@@H](CCC(=O)O)C(=O)O` [Glutamate] was tested, and the “time constant for glutamate deactivation (τ)” value (GluN1/GluN2A) was 81 ± 8 ms and the “time constant for glutamate deactivation (τ)” value (GluN1/GluN2C) was 477 ± 40 ms.
`COc1ccc(OCC2c3cc(OC)c(OC)cc3CCN2C(=O)c2cccc(Cl)c2)cc1` (stereo not shown) [CIQ] was tested, and the “NMDAR-mediated current, % of control” value ([1]; 20 μM CIQ, GluN2C-transfected neurons, n=5) was 145±9.4%, the “NMDAR current response in the presence of ifenprodil, % of baseline” value ([1]; CIQ, 3 μM ifenprodil, GluN2C-transfected neurons, n=4) was 131±5% and the “NMDAR-mediated current, % of baseline” value ([2]; 20 μM CIQ, control (GFP) cortical neurons, n=4) was 96±4.6%. The “granule cell response to pressure-applied NMDA, % of DCS” value ([3]; 20 μM CIQ, 30 μM DCS, wild type mice, n=6 animals) was 141±6.7%.
In the case of `[Zn+2]` [Zn^2+], the “GluN2AC1/GluN2CC2(NK) fitted response in saturating Zn2+ as percent of control” value ([4]; pH 6.8, 0.1 mM Mg2+) is reported as 27±1.6 ^c %, the “GluN2AC1/GluN2CC2(NK) fitted response in saturating Zn2+ as percent of control” value ([4]; pH 7.3, 0.1 mM Mg2+) is reported as 57±0.4 ^c % and the IC50 ([4]; pH 6.8, 0.1 mM Mg2+) is reported as 19 nM. For the same molecule, the IC50 ([4]; pH 7.3, 0.1 mM Mg2+) was 45 nM, the “GluN2AC1/GluN2AC2 fitted response in saturating Zn2+ as percent of control” value (GluN1/GluN2AC1/GluN2AC2; pH 6.8, mean ± SEM) was 21±1.7 ^c % and the “GluN2AC1/GluN2AC2 fitted response in saturating Zn2+ as percent of control” value (GluN1/GluN2AC1/GluN2AC2; pH 7.3, mean ± SEM) was 57±2.0 ^c %.
In the case of `NCCCNCCCCNCCCN` [Spermine], the “NMDAR current, % of baseline responses” value [5] is reported as 142±7.2%.
For `NC(CCCP(=O)(O)O)C(=O)O` (racemic) [DL-APV, D,L-2-amino-5-phosphonovalerate], the “current response, % of control” value [6] was 3.4±0.7%.
In the case of `COC(=O)c1ccc(C2C(C(C)=O)=C(O)C(=O)N2CCc2c(C)[nH]c3ccccc23)cc1` (stereo not shown) [PYD-106], the “granule cell response to pressure-applied NMDA and glycine, % of control” value [7] is reported as 164±17%, the “NMDAR current response in the presence of ifenprodil, % of baseline” value ([1]; 50 μM PYD-106, 3 μM ifenprodil, GluN2C-transfected neurons, n=5) is reported as 72±6% and the “NMDAR current response, % of control” value ([1]; 50 μM PYD-106, GluN2C-transfected neurons, n=5) is reported as 89±1.6%. The “NMDAR current response, % of control” value ([2]; 50 μM PYD-106, GFP control neurons, n=5) was 83±0.6%, the “sensitivity to PYD-106” value [8] was “insensitive” and the “granule cell response to pressure-applied NMDA, % of DCS alone” value ([3]; 50 μM PYD-106, continuous 30 μM DCS, wild type mice, n=8 animals) was 84±3.8%. For the same molecule, the “effect on NMDA responses with glycine as the co-agonist” value ([3]; wild type granule cells, n=3 animals, data not shown) was “no effect” and the “granule cell response, % of control” value [9] was 90±7%.
